Bridge positions count the residues as written; N and C are the ends. Square brackets hold non-standard residues; d marks the D form. Peptide text beside a SMILES is read from it. * marks the point of attachment. Phe(4-COOH) = N[C@@H](Cc1ccc(C(=O)O)cc1)C(=O)O; Bip = N[C@@H](Cc1ccc(-c2ccccc2)cc1)C(=O)O; Phe(3-Me) = Cc1cccc(C[C@H](N)C(=O)O)c1; Ala(cPr) = N[C@@H](CC1CC1)C(=O)O; 4Pal = N[C@@H](Cc1ccncc1)C(=O)O; Cha = N[C@@H](CC1CCCCC1)C(=O)O; Cit = NC(=O)NCCC[C@H](N)C(=O)O; Cba = N[C@@H](CC1CCC1)C(=O)O; Carboxymethyl = O=C(O)C*; Orn = NCCC[C@H](N)C(=O)O; Aun = NCCCCCCCCCCC(=O)O; Dab = NCC[C@H](N)C(=O)O; Dap = NC[C@H](N)C(=O)O; Ac3c = NC1(C(=O)O)CC1

In this experiment the target is T1, PD-1/PD-L1 interaction (PE-labeled human PD-L1-Ig binding to Jurkat cell line over-expressing human PD-1) (Homo sapiens, UniProt Q15116).
T1 construct: expressed in transfected cells; host or cells: Jurkat
T1 sequence (Q15116 25-288): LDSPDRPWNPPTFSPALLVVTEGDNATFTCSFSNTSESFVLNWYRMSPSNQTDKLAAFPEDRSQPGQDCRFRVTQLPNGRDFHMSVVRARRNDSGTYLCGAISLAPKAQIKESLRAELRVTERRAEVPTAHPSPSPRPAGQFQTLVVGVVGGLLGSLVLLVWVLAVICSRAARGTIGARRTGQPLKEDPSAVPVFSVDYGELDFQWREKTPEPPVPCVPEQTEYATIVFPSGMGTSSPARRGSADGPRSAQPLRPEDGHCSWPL
Nature of the experiment: Jurkat-PD-1 Cell Binding High-Content Screening Assay (CBA). The format is cell-based. The note with it: Jurkat cell line over-expressing human PD-1; PE-labeled PD-L1-Ig 20 nM final; read-out: Jurkat hPD1-PDL1 IC50. An outline of the steps: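 Read-out is high-content imaging of cell-bound phycoerythrin-tagged PD-L1-Ig on fixed, Hoechst-counterstained Jurkat cells that over-express human PD-1. Compound exposure lasts 2 h at 37° C before the labeled ligand (20 nM final) is added for a further hour.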
In general, IC50 refers to the concentration that gives 50% inhibition. For `Cc1cccc(C[C@@H]2NC(=O)[C@H](CC(=O)O)NC(=O)[C@H](Cc3ccc(OCC(=O)O)cc3)NC(=O)[C@H](CCCNC(=N)N)NC(=O)CSC[C@@H](C(=O)N[C@@H](CCN)C(=O)NCCCCCCCCCCC(=O)O)NC(=O)[C@H]([C@@H](C)O)NC(=O)[C@H](C(C)C)NC(=O)[C@H](CC3CCCCC3)NC(=O)[C@H](CCN)NC(=O)[C@@H](CC(C)C)NC(=O)[C@H](CCCN)NC(=O)[C@H](Cc3ccc(OCC(=O)O)cc3)NC(=O)[C@H](Cc3ccc(-c4ccccc4)cc3)NC(=O)[C@H](Cc3ccc(OCC(=O)O)cc3)NC2=O)c1` [Compound 2157] ({CH2CO}-RY(Carboxymethyl)D[Phe(3-Me)]Y(Carboxymethyl)[Bip]Y(Carboxymethyl)[Orn][dL][Dab][Cha]VTC[Dab][Aun]-OH; thioether N-14), the IC50 turned out to be 97.8 nM. The figure for `Cc1cccc(C[C@@H]2NC(=O)[C@H](CC(=O)O)NC(=O)[C@H](Cc3ccc(OCC(=O)O)cc3)NC(=O)[C@H](CN)NC(=O)CN[C@@H](C(=O)N[C@@H](CCN)C(=O)NCCCCCCCCCCC(=O)O)CNC(=O)[C@H]([C@@H](C)O)NC(=O)[C@H](C(C)C)NC(=O)[C@H](CC3CCCCC3)NC(=O)[C@H](CCN)NC(=O)[C@@H](CC(C)C)NC(=O)[C@H](CCCN)NC(=O)[C@H](CCCNC(N)=O)NC(=O)[C@H](Cc3ccc(-c4ccccc4)cc3)NC(=O)[C@H](C(C)C)NC2=O)c1` [Compound 2158] is 129 nM; for `Cc1cccc(C[C@@H]2NC(=O)[C@H](CC(=O)O)NC(=O)[C@H](Cc3ccc(OCC(=O)O)cc3)NC(=O)[C@H](CCCNC(=N)N)NC(=O)CN(C)C[C@@H](C(=O)N[C@@H](CCN)C(=O)NCCCCCCCCCCC(=O)O)NC(=O)[C@H]([C@@H](C)O)NC(=O)[C@H](C(C)C)NC(=O)[C@H](CC3CCCCC3)NC(=O)[C@H](CCN)NC(=O)[C@@H](CC(C)C)NC(=O)[C@H](CCCN)NC(=O)[C@H](Cc3ccc(OCC(=O)O)cc3)NC(=O)[C@H](Cc3ccc(-c4ccccc4)cc3)NC(=O)[C@H](Cc3ccc(OCC(=O)O)cc3)NC2=O)c1` [Compound 2159] it is 96.1 nM.

On to `Cc1cccc(C[C@@H]2NC(=O)[C@H](CC(=O)O)NC(=O)[C@H](Cc3ccc(OCC(=O)O)cc3)NC(=O)[C@H](CN)NC(=O)CNC[C@@H](C(=O)N[C@@H](CCN)C(=O)NCCCCCCCCCCC(=O)O)NC(=O)[C@H]([C@@H](C)O)NC(=O)[C@H](C(C)C)NC(=O)[C@H](CC3CCCCC3)NC(=O)[C@H](CCN)NC(=O)[C@@H](CC(C)C)NC(=O)[C@H](CCCN)NC(=O)[C@H](CCCNC(N)=O)NC(=O)[C@H](Cc3ccc(-c4ccccc4)cc3)NC(=O)[C@H](C(C)C)NC2=O)c1` [Compound 2160], for which the IC50 turned out to be 42.6 nM.

`Cc1cccc(C[C@@H]2NC(=O)[C@H](CC(=O)O)NC(=O)[C@H](Cc3ccc(OCC(=O)O)cc3)NC(=O)[C@H](CCCNC(=N)N)NC(=O)CSC[C@@H](C(=O)NC3(C(=O)NCCCCCCCCCCC(=O)O)CC3)NC(=O)[C@H]([C@@H](C)O)NC(=O)[C@H](C(C)C)NC(=O)[C@H](CC3CCCCC3)NC(=O)[C@H](CCN)NC(=O)[C@@H](CC(C)C)NC(=O)[C@H](CCN)NC(=O)[C@H](Cc3ccc(OCC(=O)O)cc3)NC(=O)[C@H](Cc3ccc(-c4ccccc4)cc3)NC(=O)[C@H](Cc3ccc(OCC(=O)O)cc3)NC2=O)c1` [Compound 2161] ({CH2CO}-RY(Carboxymethyl)D[Phe(3-Me)]Y(Carboxymethyl)[Bip]Y(Carboxymethyl)[Dab][dL][Dab][Cha]VTC[Ac3c][Aun]-OH; thioether N-14): the IC50 turned out to be 12.9 nM. As for `Cc1cccc(C[C@@H]2NC(=O)[C@H](CC(=O)O)NC(=O)[C@H](Cc3ccc(OCC(=O)O)cc3)NC(=O)[C@H](CCCNC(=N)N)NC(=O)CSC[C@@H](C(=O)NC3(C(=O)NCCCCCCCCCCC(=O)O)CC3)NC(=O)[C@H]([C@@H](C)O)NC(=O)[C@H](C(C)C)NC(=O)[C@H](CC3CCCCC3)NC(=O)[C@H](CCN)NC(=O)[C@@H](CC(C)C)NC(=O)[C@H](CCCNC(N)=O)NC(=O)[C@H](Cc3ccc(OCC(=O)O)cc3)NC(=O)[C@H](Cc3ccc(-c4ccccc4)cc3)NC(=O)[C@H](Cc3ccc(OCC(=O)O)cc3)NC2=O)c1` [Compound 2162] ({CH2CO}-RY(Carboxymethyl)D[Phe(3-Me)]Y(Carboxymethyl)[Bip]Y(Carboxymethyl)[Cit][dL][Dab][Cha]VTC[Ac3c][Aun]-OH; thioether N-14), the half-maximal inhibitory concentration (IC50) was 12.9 nM.

`Cc1cccc(C[C@@H]2NC(=O)[C@H](CC(=O)O)NC(=O)[C@H](Cc3ccc(OCC(=O)O)cc3)NC(=O)[C@H](CCCNC(=N)N)NC(=O)CSC[C@@H](C(=O)NC3(C(=O)NCCCCCCCCCCC(=O)O)CC3)NC(=O)[C@H]([C@@H](C)O)NC(=O)[C@H](C(C)C)NC(=O)[C@H](CC3CC3)NC(=O)[C@H](CCN)NC(=O)[C@@H](CC(C)C)NC(=O)[C@H](CCCN)NC(=O)[C@H](Cc3ccc(OCC(=O)O)cc3)NC(=O)[C@H](Cc3ccc(-c4ccccc4)cc3)NC(=O)[C@H](Cc3ccc(OCC(=O)O)cc3)NC2=O)c1` [Compound 2163] ({CH2CO}-RY(Carboxymethyl)D[Phe(3-Me)]Y(Carboxymethyl)[Bip]Y(Carboxymethyl)[Orn][dL][Dab][Ala(cPr)]VTC[Ac3c][Aun]-OH; thioether N-14): the concentration for half-maximal inhibition (IC50) was found to be 93 nM. As to `Cc1cccc(C[C@@H]2NC(=O)[C@H](CC(=O)O)NC(=O)[C@H](Cc3ccc(OCC(=O)O)cc3)NC(=O)[C@H](CCCNC(=N)N)NC(=O)CSC[C@@H](C(=O)NC3(C(=O)NCCCCCCCCCCC(=O)O)CC3)NC(=O)[C@H]([C@@H](C)O)NC(=O)[C@H](C(C)C)NC(=O)[C@H](CC3CCC3)NC(=O)[C@H](CCN)NC(=O)[C@@H](CC(C)C)NC(=O)[C@H](CCCN)NC(=O)[C@H](Cc3ccc(OCC(=O)O)cc3)NC(=O)[C@H](Cc3ccc(-c4ccccc4)cc3)NC(=O)[C@H](Cc3ccc(OCC(=O)O)cc3)NC2=O)c1` [Compound 2164] ({CH2CO}-RY(Carboxymethyl)D[Phe(3-Me)]Y(Carboxymethyl)[Bip]Y(Carboxymethyl)[Orn][dL][Dab][Cba]VTC[Ac3c][Aun]-OH; thioether N-14), the half-inhibitory concentration (IC50) was 33.3 nM. To `Cc1cccc(C[C@@H]2NC(=O)[C@H](CC(=O)O)NC(=O)[C@H](Cc3ccc(C(=O)O)cc3)NC(=O)[C@H](CN)NC(=O)CSC[C@@H](C(=O)N[C@@H](CCN)C(=O)NCCCCCCCCCCC(=O)O)NC(=O)[C@H]([C@@H](C)O)NC(=O)[C@H](C(C)C)NC(=O)[C@H](CC3CCCCC3)NC(=O)[C@H](CCN)NC(=O)[C@@H](CC(C)C)NC(=O)[C@H](CCCN)NC(=O)[C@H](Cc3ccc(OCC(=O)O)cc3)NC(=O)[C@H](Cc3ccc(-c4ccccc4)cc3)NC(=O)[C@H](Cc3ccc(OCC(=O)O)cc3)NC2=O)c1` [Compound 2165] ({CH2CO}-[Dap][Phe(4-COOH)]D[Phe(3-Me)]Y(Carboxymethyl)[Bip]Y(Carboxymethyl)[Orn][dL][Dab][Cha]VTC[Dab][Aun]-OH; thioether N-14) belongs 21.8 nM; to `Cc1cccc(C[C@@H]2NC(=O)[C@H](CC(=O)O)NC(=O)[C@H](Cc3ccc(C(=O)O)cc3)NC(=O)[C@H](CCCNC(=N)N)NC(=O)CSC[C@@H](C(=O)N[C@@H](CCN)C(=O)NCCCCCCCCCCC(=O)O)NC(=O)[C@H]([C@@H](C)O)NC(=O)[C@H](C(C)C)NC(=O)[C@H](CC3CCCCC3)NC(=O)[C@H](CCN)NC(=O)[C@@H](CC(C)C)NC(=O)[C@H](CCCN)NC(=O)[C@H](Cc3ccc(OCC(=O)O)cc3)NC(=O)[C@H](Cc3ccc(-c4ccccc4)cc3)NC(=O)[C@H](Cc3ccc(OCC(=O)O)cc3)NC2=O)c1` [Compound 2166] ({CH2CO}-R[Phe(4-COOH)]D[Phe(3-Me)]Y(Carboxymethyl)[Bip]Y(Carboxymethyl)[Orn][dL][Dab][Cha]VTC[Dab][Aun]-OH; thioether N-14), 11.8 nM. Take `Cc1cccc(C[C@@H]2NC(=O)[C@H](CC(=O)O)NC(=O)[C@H](Cc3ccc(C(=O)O)cc3)NC(=O)[C@H](Cc3ccncc3)NC(=O)CSC[C@@H](C(=O)NC3(C(=O)NCCCCCCCCCCC(=O)O)CC3)NC(=O)[C@H]([C@@H](C)O)NC(=O)[C@H](C(C)C)NC(=O)[C@H](CC3CCCCC3)NC(=O)[C@H](CCN)NC(=O)[C@@H](CC(C)C)NC(=O)[C@H](CCCN)NC(=O)[C@H](Cc3ccc(OCC(=O)O)cc3)NC(=O)[C@H](Cc3ccc(-c4ccccc4)cc3)NC(=O)[C@H](Cc3ccc(OCC(=O)O)cc3)NC2=O)c1` [Compound 2167] ({CH2CO}-[4Pal][Phe(4-COOH)]D[Phe(3-Me)]Y(Carboxymethyl)[Bip]Y(Carboxymethyl)[Orn][dL][Dab][Cha]VTC[Ac3c][Aun]-OH; thioether N-14): the IC50 is 9.4 nM. As for `Cc1cccc(C[C@@H]2NC(=O)[C@H](CC(=O)O)NC(=O)[C@H](Cc3ccc(C(=O)O)cc3)NC(=O)[C@H](Cc3ccncc3)NC(=O)CSC[C@@H](C(=O)NC3(C(=O)NCCCCCCCCCCC(=O)O)CC3)NC(=O)[C@H]([C@@H](C)O)NC(=O)[C@H](C(C)C)NC(=O)[C@H](CC(C)C)NC(=O)[C@H](CCN)NC(=O)[C@@H](CC(C)C)NC(=O)[C@H](CCCN)NC(=O)[C@H](Cc3ccc(OCC(=O)O)cc3)NC(=O)[C@H](Cc3ccc(-c4ccccc4)cc3)NC(=O)[C@H](Cc3ccc(OCC(=O)O)cc3)NC2=O)c1` [Compound 2168] ({CH2CO}-[4Pal][Phe(4-COOH)]D[Phe(3-Me)]Y(Carboxymethyl)[Bip]Y(Carboxymethyl)[Orn][dL][Dab]LVTC[Ac3c][Aun]-OH; thioether N-14), the IC50 was 26.7 nM.

On to `Cc1cccc(C[C@@H]2NC(=O)[C@H](CC(=O)O)NC(=O)[C@H](Cc3ccc(OCC(=O)O)cc3)NC(=O)[C@H](CCCNC(=N)N)NC(=O)CSC[C@@H](C(=O)N[C@@H](CCN)C(=O)NCCCCCCCCCCC(=O)O)NC(=O)[C@H]([C@@H](C)O)NC(=O)[C@H](C(C)C)NC(=O)[C@H](CC3CC3)NC(=O)[C@H](CCN)NC(=O)[C@@H](CC(C)C)NC(=O)[C@H](CCCN)NC(=O)[C@H](Cc3ccc(OCC(=O)O)cc3)NC(=O)[C@H](Cc3ccc(-c4ccccc4)cc3)NC(=O)[C@H](Cc3ccc(OCC(=O)O)cc3)NC2=O)c1` [Compound 2169] ({CH2CO}-RY(Carboxymethyl)D[Phe(3-Me)]Y(Carboxymethyl)[Bip]Y(Carboxymethyl)[Orn][dL][Dab][Ala(cPr)]VTC[Dab][Aun]-OH; thioether N-14), for which the IC50 was determined as 14.3 nM.

For the origin of these results see US20260022142A1, “MACROCYCLIC IMMUNOMODULATORS” (Bristol-Myers Squibb Company, priority 2022, published 2026).
